According to PubChem BioAssay AID328 (DTP/NCI, 2004):
Toxic doses and inconclusive results are not listed. How the source made its calls: active means survival T/C of 150% or more; inactive means T/C below 125% in these data.

System: BDF1 mice, P388 leukemia ip, median survival T/C
Experiment: NCI In Vivo Anticancer Drug Screen. Data for tumor model P388 Leukemia (intraperitoneal) in B6D2F1 (BDF1) mice
Details: endpoint: median survival time, higher = longer survival
Outline: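 Survival ratio, drug arm over vehicle arm, in mice with a transplanted tumour.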

[1] = dose: 50.0 mg/kg/injection, schedule: Q01DX009 (ip), vehicle: saline with Tween-80
[2] = dose: 50.0 mg/kg/injection, schedule: Q04DX003 (ip), vehicle: saline
[3] = dose: 200.0 mg/kg/injection, schedule: Q04DX003 (ip), vehicle: saline
[4] = dose: 100.0 mg/kg/injection, schedule: Q01DX009 (ip), vehicle: saline
[5] = dose: 200.0 mg/kg/injection, schedule: Q01DX009 (ip), vehicle: saline
[6] = dose: 400.0 mg/kg/injection, schedule: Q01DX009 (ip), vehicle: saline
[7] = dose: 100.0 mg/kg/injection, schedule: Q01DX009 (ip), vehicle: saline with Tween-80
[8] = dose: 200.0 mg/kg/injection, schedule: Q01DX009 (ip), vehicle: saline with Tween-80
[9] = dose: 400.0 mg/kg/injection, schedule: Q01DX009 (ip), vehicle: saline with Tween-80
[10] = dose: 50.0 mg/kg/injection, schedule: Q01DX009 (ip), vehicle: Klucel (hydroxypropylcellulose) (HPC)
[11] = dose: 100.0 mg/kg/injection, schedule: Q01DX009 (ip), vehicle: Klucel (hydroxypropylcellulose) (HPC)
[12] = dose: 200.0 mg/kg/injection, schedule: Q01DX009 (ip), vehicle: Klucel (hydroxypropylcellulose) (HPC)
[13] = dose: 100.0 mg/kg/injection, schedule: Q04DX003 (ip), vehicle: saline with Tween-80
[14] = dose: 200.0 mg/kg/injection, schedule: Q04DX003 (ip), vehicle: saline with Tween-80
[15] = dose: 400.0 mg/kg/injection, schedule: Q04DX003 (ip), vehicle: saline with Tween-80
[16] = dose: 100.0 mg/kg/injection, schedule: Q04DX003 (ip), vehicle: Klucel (hydroxypropylcellulose) (HPC)
[17] = dose: 200.0 mg/kg/injection, schedule: Q04DX003 (ip), vehicle: Klucel (hydroxypropylcellulose) (HPC)
[18] = dose: 400.0 mg/kg/injection, schedule: Q04DX003 (ip), vehicle: Klucel (hydroxypropylcellulose) (HPC)

Measured: T/C

COc1ccc(-c2oc3cc(OC4OC(C)C(O)C(O)C4O)c(O)c(O)c3c(=O)c2OC2OC(C)C(O)C(O)C2O)cc1 (centres undefined)
inactive: dose: 25.0 mg/kg/injection, schedule: Q01DX009 (ip), vehicle: saline + alcohol 92 % of control | dose: 50.0 mg/kg/injection, schedule: Q01DX009 (ip), vehicle: saline + alcohol 92 % of control | dose: 100.0 mg/kg/injection, schedule: Q01DX009 (ip), vehicle: saline + alcohol 106 % of control

Cc1cc2c(c3ncccc13)OCN(Cc1ccc(Cl)c(Cl)c1)C2
inactive: dose: 12.5 mg/kg/injection, schedule: Q01DX009 (ip), vehicle: saline with Tween-80 113 % of control | dose: 25.0 mg/kg/injection, schedule: Q01DX009 (ip), vehicle: saline with Tween-80 108 % of control | [1] 104 % of control

Cl
inactive: dose: 0.62 mg/kg/injection, schedule: Q01DX009 (ip), vehicle: water 100 % of control | dose: 1.25 mg/kg/injection, schedule: Q01DX009 (ip), vehicle: water 90 % of control | dose: 2.5 mg/kg/injection, schedule: Q01DX009 (ip), vehicle: water 104 % of control | dose: 5.0 mg/kg/injection, schedule: Q01DX009 (ip), vehicle: water 95 % of control | dose: 10.0 mg/kg/injection, schedule: Q01DX009 (ip), vehicle: water 100 % of control | dose: 20.0 mg/kg/injection, schedule: Q01DX009 (ip), vehicle: water 100 % of control | dose: 25.0 mg/kg/injection, schedule: Q01DX009 (ip), vehicle: water 90 % of control | dose: 50.0 mg/kg/injection, schedule: Q01DX009 (ip), vehicle: water 104 % of control

CCOC(=O)c1cnc2c(cnn2CC)c1NN=C(C)C
inactive: [2] 122 % of control | [3] 111 % of control

CCN1c2c(nc(N)[nH]c2=O)NCC1CNc1ccc(C(=O)NC(CCC(=O)O)C(=O)O)cc1 (centres undefined)
inactive: [4] 101 % of control | [5] 105 % of control | [6] 105 % of control

O=C(O)C1(c2ccccc2)CC1
inactive: [7] 109 % of control | [8] 90 % of control | [9] 90 % of control

COC1=C(N)C(=O)c2nc(-c3nc(C=O)c(C)c(-c4ccc(OC)c(OC)c4O)c3N)ccc2C1=O
inactive: dose: 0.8 mg/kg/injection, schedule: Q01DX009 (ip), vehicle: dioxane 104 % of control | dose: 1.05 mg/kg/injection, schedule: Q01DX009 (ip), vehicle: dioxane 122 % of control | dose: 1.55 mg/kg/injection, schedule: Q01DX009 (ip), vehicle: dioxane 99 % of control | dose: 2.55 mg/kg/injection, schedule: Q01DX009 (ip), vehicle: dioxane 107 % of control | dose: 3.05 mg/kg/injection, schedule: Q01DX009 (ip), vehicle: dioxane 104 % of control | dose: 4.05 mg/kg/injection, schedule: Q01DX009 (ip), vehicle: dioxane 109 % of control | dose: 5.05 mg/kg/injection, schedule: Q01DX009 (ip), vehicle: dioxane 118 % of control

CC12C(=O)C(C)(C(c3ccccc3)=C1c1ccccc1)C1(c3ccccc3)C(c3ccccc3)C21c1ccccc1 (centres undefined)
inactive: [10] 100 % of control | [11] 100 % of control | [12] 104 % of control

COc1cc(/C=N/NC(=O)c2ccccc2)cc(OC)c1OC
inactive: [7] 95 % of control | [13] 109 % of control | [8] 100 % of control | [14] 104 % of control | [9] 95 % of control | [15] 90 % of control

CSc1ccccc1C=O
inactive: [16] 95 % of control | [17] 100 % of control | [18] 112 % of control

CCOC(=O)C(=Cc1ccc(C=C(C(=O)OCC)C(=O)OCC)cc1)C(=O)OCC
inactive: [10] 110 % of control | [11] 105 % of control | [16] 91 % of control | [12] 95 % of control | [17] 91 % of control

COc1ccc2nc3c4ccccc4scc-3c2c1
inactive: dose: 25.0 mg/kg/injection, schedule: Q04DX003 (ip), vehicle: Klucel (hydroxypropylcellulose) (HPC) 109 % of control | dose: 50.0 mg/kg/injection, schedule: Q04DX003 (ip), vehicle: Klucel (hydroxypropylcellulose) (HPC) 109 % of control | [16] 100 % of control | dose: 148.5 mg/kg/injection, schedule: Q04DX003 (ip), vehicle: Klucel (hydroxypropylcellulose) (HPC) 109 % of control | dose: 150.0 mg/kg/injection, schedule: Q04DX003 (ip), vehicle: Klucel (hydroxypropylcellulose) (HPC) 116 % of control | dose: 225.0 mg/kg/injection, schedule: Q04DX003 (ip), vehicle: Klucel (hydroxypropylcellulose) (HPC) 100 % of control | dose: 337.5 mg/kg/injection, schedule: Q04DX003 (ip), vehicle: Klucel (hydroxypropylcellulose) (HPC) 113 % of control

O=C(NC(CSC(=O)c1ccccc1)C(=O)O)OCc1ccccc1 (centres undefined)
inactive: [10] 95 % of control | [11] 95 % of control | [12] 100 % of control

CN(C)c1nn2c(-c3ccccc3)nnc2s1
inactive: [4] 86 % of control | [5] 90 % of control | [6] 100 % of control

Oc1ccc(Nc2ccccc2)cc1
inactive: dose: 100.0 mg/kg/injection, schedule: Q01DX001 (ip), vehicle: saline 95 % of control | dose: 200.0 mg/kg/injection, schedule: Q01DX001 (ip), vehicle: saline 100 % of control | dose: 400.0 mg/kg/injection, schedule: Q01DX001 (ip), vehicle: saline 100 % of control

CS(=O)C/C(=C/CCCl)c1cccs1 (centres undefined)
inactive: [1] 105 % of control | [7] 94 % of control | [8] 105 % of control

O=N/N=c1/sc2ccccc2n1-c1ccccc1
inactive: dose: 25.0 mg/kg/injection, schedule: Q01DX001 (ip), vehicle: saline sonified 100 % of control | dose: 50.0 mg/kg/injection, schedule: Q01DX001 (ip), vehicle: saline sonified 104 % of control | dose: 100.0 mg/kg/injection, schedule: Q01DX001 (ip), vehicle: saline sonified 100 % of control

CC(C)(C)OC(=O)C(CC(=O)O)=C(c1ccccc1)c1ccccc1
inactive: [16] 95 % of control | [17] 108 % of control | [18] 95 % of control

COC(=O)c1cc(=O)nc(N/N=C/c2ccco2)s1
inactive: dose: 50.0 mg/kg/injection, schedule: Q01DX005 (ip), vehicle: saline with Tween-80 94 % of control | dose: 100.0 mg/kg/injection, schedule: Q01DX005 (ip), vehicle: saline with Tween-80 89 % of control | dose: 200.0 mg/kg/injection, schedule: Q01DX005 (ip), vehicle: saline with Tween-80 87 % of control

Cc1ccc(NC(=O)Nc2ccccc2C(F)(F)F)cc1NC(=O)Nc1ccccc1C(F)(F)F
inactive: [13] 100 % of control | [14] 100 % of control | [15] 104 % of control

NNC(=O)c1ccncc1
inactive: dose: 50.0 mg/kg/injection, schedule: Q01DX009 (ip), vehicle: saline 110 % of control | [2] 105 % of control | dose: 100.0 mg/kg/injection, schedule: Q04DX003 (ip), vehicle: saline 105 % of control | [3] 100 % of control

CC(CCl)OC(C)CCl (centres undefined)
inactive: dose: 100.0 mg/kg/injection, schedule: Q04DX002 (ip), vehicle: saline 106 % of control | dose: 200.0 mg/kg/injection, schedule: Q04DX002 (ip), vehicle: saline 107 % of control | dose: 400.0 mg/kg/injection, schedule: Q04DX002 (ip), vehicle: saline 107 % of control

O=C(O)/C=C/C(=O)Nc1ccc(I)cc1
inactive: [1] 109 % of control | [7] 109 % of control | [8] 104 % of control

O=C1c2cccnc2C(=O)N1Cc1ccccc1
inactive: dose: 9.38 mg/kg/injection, schedule: Q01DX009 (ip), vehicle: saline with Tween-80 109 % of control | dose: 18.7 mg/kg/injection, schedule: Q01DX009 (ip), vehicle: saline with Tween-80 95 % of control | dose: 37.5 mg/kg/injection, schedule: Q01DX009 (ip), vehicle: saline with Tween-80 100 % of control

COC1=CC(=O)C(Cl)=C(OC)C1=O
inactive: dose: 0.78 mg/kg/injection, schedule: Q01DX009 (ip), vehicle: saline 113 % of control | dose: 1.56 mg/kg/injection, schedule: Q01DX009 (ip), vehicle: saline 113 % of control | dose: 3.13 mg/kg/injection, schedule: Q01DX009 (ip), vehicle: saline with Tween-80 110 % of control | dose: 3.13 mg/kg/injection, schedule: Q01DX009 (ip), vehicle: saline 104 % of control
